One assay deals with HepG2 cells. Put plainly: Cellular uptake assay (high-content imaging). Format: cell-based, human. The following applies: 100 nM AF488-labeled antibody, 6 hours at 37° C. The text has this:
The cellular uptake assay is designed to measure compound-mediated cellular uptake of fluorescently labeled antibody following ternary complex formation with the ASGPR receptor and endocytosis of the entire complex into cells. The optimal concentration of compound will result in the maximum number of cells with intracellular antibody and is represented as the peak ratio of antibody-positive cells over the total number of cells. As with the ternary complex formation assay, too much or too little compound will result in suboptimal complex formation and fewer cells will have measurable intracellular fluorescence.
Human IgG (Sigma-Aldrich, 14506) was covalently labeled with Alexa Fluor 488 using the Alexa Fluor™ 488 Protein Labeling Kit (Thermo Fisher, A10235) following the manufacturer's instructions. HepG2 cells were plated in DMEM supplemented with 10% FBS at 5,000 cells per well in a 96-well microtiter plate and incubated for approximately 18 hours at 37° C./5% CO2. For studies using human IgG, 100 nM AF488-labeled human IgG antibodies and serial dilutions of IgG-based degrader (0.1% DMSO final concentration) were added to the cells and the mixture was incubated at 37° C. for 6 hours. For studies using DNP, 100 nM AF488-labeled DNP antibodies and serial dilutions of DNP-based degrader (0.1% DMSO final concentration) were added to the cells and the mixture was incubated at 37° C. for 6 hours. HepG2 cells were fixed in 100% methanol at −20° C. for 20 min, washed 3× with PBS, then stained with DAPI (Thermo, Cat #H3570). HepG2 cells were imaged for DAPI and Alexa Fluor 488 using the Operetta CLS, high-content analysis system (PerkinElmer). Data is presented as the ratio of the number of cells positive for hIgG or DNP (AF-488 fluorescence) over the total cell number (measured by DAPI).

Assay [1] has as its target T1, ASGPR receptor on HepG2 cells (ternary complex with AF488-labeled antibody) (Homo sapiens, UniProt P07306).
T1 construct: host or cells: HepG2
T1 sequence (P07306 1-291): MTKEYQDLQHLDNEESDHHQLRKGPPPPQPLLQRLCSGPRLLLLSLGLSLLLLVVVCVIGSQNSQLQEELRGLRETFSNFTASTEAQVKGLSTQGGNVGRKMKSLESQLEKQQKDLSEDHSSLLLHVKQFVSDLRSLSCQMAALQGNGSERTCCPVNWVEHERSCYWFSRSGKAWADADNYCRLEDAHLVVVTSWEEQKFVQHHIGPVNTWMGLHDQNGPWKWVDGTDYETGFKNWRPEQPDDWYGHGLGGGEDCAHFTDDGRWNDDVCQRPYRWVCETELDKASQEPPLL
T1 sequence (P07307 1-311 partner): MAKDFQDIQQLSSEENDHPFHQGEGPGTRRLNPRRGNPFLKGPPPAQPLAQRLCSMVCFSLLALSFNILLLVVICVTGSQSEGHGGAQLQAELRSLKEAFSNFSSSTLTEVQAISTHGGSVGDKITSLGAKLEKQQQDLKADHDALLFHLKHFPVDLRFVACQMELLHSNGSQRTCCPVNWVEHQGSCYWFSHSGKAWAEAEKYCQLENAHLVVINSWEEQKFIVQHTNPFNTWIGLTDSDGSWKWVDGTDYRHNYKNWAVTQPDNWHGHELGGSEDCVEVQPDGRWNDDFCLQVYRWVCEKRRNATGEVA
Put plainly: Ternary complex formation assay (flow cytometry, cell-associated AF488 fluorescence). Format: cell-based. The following applies: 100 nM AF488-labeled antibody, 1 hour at 4° C.

For another assay, the target named is T2, ASGPR (Homo sapiens, UniProt P07306).
T2 construct: biotin (biotinylated)
T2 sequence (P07306 1-291): T1 sequence (P07306 1-291)
The assay can be described thus: ASGPR SPR binding. For orientation: In SPR one partner is held on a chip, and binding of the other changes the refractive index at the surface.

Another assay deals with IgG. Put plainly: IgG SPR binding.
Where [2] appears, read: Homo sapiens, Table 3, class symbols, read-out: Uptake Assay (EC50).
Setting [3] is: Table 3, class symbols, read-out: Ternary Complex EC50.
Setting [4] is: Table 3, read-out: ASGPR SPR Binding KD.
Where [5] appears, read: Table 3, read-out: IgG SPR Binding KD.
Where [6] appears, read: the 25th table, class symbols, read-out: Uptake EC50.
Setting [7] is: the 25th table, class symbols, read-out: TCF EC50.
[8] abbreviates: second table, read-out: ASGPR KD.

Where two headings read alike, the source gives them in different places. Where only a bound is given, the exact number is not on record here.

One may read the EC50 as the midpoint of the concentration-response curve. For orientation: Kd means the concentration at which binding is half-saturated. As for `CC(C)C[C@@H]1NC(=O)[C@H](Cc2cnc[nH]2)NC(=O)[C@H](Cc2c[nH]c3ccccc23)NC(=O)[C@H](C)NC(=O)[C@@H]2CSSC[C@H](NC(=O)[C@H](Cc3c[nH]c4ccccc34)NC(=O)[C@H](C(C)C)NC(=O)[C@H](CC(C)C)NC(=O)[C@H](CCC(=O)O)NC(=O)CNC1=O)C(=O)N[C@@H]([C@@H](C)O)C(=O)N1CCC[C@@H]1C(=O)N1C[C@@H](NC(=O)COCCOCC(=O)NC[C@H]3OC[C@H](Nc4cccc(C(F)(F)F)n4)[C@@H](O)[C@H]3O)C[C@H]1C(=O)N[C@@H](CC(=O)O)C(=O)N2` [compound 25], the EC50 (in the assay with HepG2 cells (setting [2]); in assay [1] (setting [3])) was less than 0.1 µM in each case. Also, on ASGPR (setting [4]), the dissociation constant (Kd) was 0.5 to 1 µM.

`CC(C)C[C@@H]1NC(=O)[C@H](Cc2cnc[nH]2)NC(=O)[C@H](Cc2c[nH]c3ccccc23)NC(=O)[C@H](C)NC(=O)[C@@H]2CSSC[C@H](NC(=O)[C@H](Cc3c[nH]c4ccccc34)NC(=O)[C@H](C(C)C)NC(=O)[C@H](CC(C)C)NC(=O)[C@H](CCC(=O)O)NC(=O)CNC1=O)C(=O)N[C@@H]([C@@H](C)O)C(=O)N1CCC[C@@H]1C(=O)N1C[C@@H](NC(=O)c3ccc(N4CCC(CN5CCN(C[C@H]6OC[C@H](Nc7cccc(C(F)(F)F)n7)[C@@H](O)[C@H]6O)CC5)CC4)cc3)C[C@H]1C(=O)N[C@@H](CC(=O)O)C(=O)N2` [compound 26]: the EC50 (with HepG2 cells (setting [2]); in assay [1] (setting [3])) was less than 0.1 µM each time. The Kd at IgG (setting [5]) and at ASGPR (setting [4]) was less than 0.1 µM each time.

Regarding `CC(C)C[C@@H]1NC(=O)[C@H](Cc2cnc[nH]2)NC(=O)[C@H](Cc2c[nH]c3ccccc23)NC(=O)[C@H](C)NC(=O)[C@@H]2CSSC[C@H](NC(=O)[C@H](Cc3c[nH]c4ccccc34)NC(=O)[C@H](C(C)C)NC(=O)[C@H](CC(C)C)NC(=O)[C@H](CCC(=O)O)NC(=O)CNC1=O)C(=O)N[C@@H]([C@@H](C)O)C(=O)N1CCC[C@@H]1C(=O)N1C[C@@H](NC(=O)c3ccc(N4CCC(CN5CCN(C[C@H]6OC[C@H](Nc7nc(C(F)(F)F)ccc7F)[C@@H](O)[C@H]6O)CC5)CC4)cc3)C[C@H]1C(=O)N[C@@H](CC(=O)O)C(=O)N2` [compound 27], the EC50 (in the assay with HepG2 cells (setting [2]); in assay [1] (setting [3])) was less than 0.1 µM in each case. For the same compound, the Kd on IgG (setting [5]) and on ASGPR (setting [4]) was less than 0.1 µM each time.

As for `CC(C)C[C@@H]1NC(=O)[C@H](Cc2cnc[nH]2)NC(=O)[C@H](Cc2c[nH]c3ccccc23)NC(=O)[C@H](C)NC(=O)[C@@H]2CSSC[C@H](NC(=O)[C@H](Cc3c[nH]c4ccccc34)NC(=O)[C@H](C(C)C)NC(=O)[C@H](CC(C)C)NC(=O)[C@H](CCC(=O)O)NC(=O)CNC1=O)C(=O)N[C@@H]([C@@H](C)O)C(=O)N1CCC[C@@H]1C(=O)N1C[C@H](NC(=O)COCCOCC(=O)NC[C@H]3OC[C@H](Nc4cccc(C(F)(F)F)n4)[C@@H](O)[C@H]3O)C[C@H]1C(=O)N[C@@H](CC(=O)O)C(=O)N2` [compound 28], the EC50 in the assay on HepG2 cells (Homo sapiens, Table 3, numeric bounds, read-out: Uptake Assay (EC50)) was greater than 1.1 µM; in assay [1] (setting [3]) it was less than 0.1 µM. The Kd on IgG (setting [5]) and on ASGPR (setting [4]) was less than 0.1 µM each time.

With `CC(C)C[C@@H]1NC(=O)[C@H](Cc2cnc[nH]2)NC(=O)[C@H](Cc2c[nH]c3ccccc23)NC(=O)[C@H](C)NC(=O)[C@@H]2CSSC[C@H](NC(=O)[C@H](Cc3c[nH]c4ccccc34)NC(=O)[C@H](C(C)C)NC(=O)[C@H](CC(C)C)NC(=O)[C@H](CCC(=O)O)NC(=O)CNC1=O)C(=O)N[C@@H]([C@@H](C)O)C(=O)N1CCC[C@@H]1C(=O)N1C[C@H](NC(=O)c3ccc(N4CCC(CN5CCN(C[C@H]6OC[C@H](Nc7cccc(C(F)(F)F)n7)[C@@H](O)[C@H]6O)CC5)CC4)cc3)C[C@H]1C(=O)N[C@@H](CC(=O)O)C(=O)N2` [compound 29], the EC50 with HepG2 cells (setting [2]) was 0.1 to 0.5 µM; in assay [1] (setting [3]), less than 0.1 µM. In addition, the Kd at IgG (setting [5]) and at ASGPR (setting [4]) was less than 0.1 µM throughout.

`CC(C)C[C@@H]1NC(=O)[C@H](Cc2cnc[nH]2)NC(=O)[C@H](Cc2c[nH]c3ccccc23)NC(=O)[C@H](C)NC(=O)[C@@H]2CSSC[C@H](NC(=O)[C@H](Cc3c[nH]c4ccccc34)NC(=O)[C@H](C(C)C)NC(=O)[C@H](CC(C)C)NC(=O)[C@H](CCC(=O)O)NC(=O)CNC1=O)C(=O)N[C@@H]([C@@H](C)O)C(=O)N1CCC[C@@H]1C(=O)N1C[C@H](NC(=O)c3ccc(N4CCC(CN5CCN(C[C@H]6OC[C@H](Nc7nc(C(F)(F)F)ccc7F)[C@@H](O)[C@H]6O)CC5)CC4)cc3)C[C@H]1C(=O)N[C@@H](CC(=O)O)C(=O)N2` [compound 30]: the EC50 (with HepG2 cells (setting [2]); in assay [1] (setting [3])) was 0.1 to 0.5 µM in each case. Moreover, the Kd at IgG (setting [5]) and on ASGPR (setting [4]) was less than 0.1 µM throughout.

As to `CC(C)C[C@@H]1NC(=O)[C@H](Cc2cnc[nH]2)NC(=O)[C@H](Cc2c[nH]c3ccccc23)NC(=O)[C@H](C)NC(=O)[C@@H](NC(=O)[C@H](CC(=O)O)NC(=O)CCOCCCCOCCCCOCCCCOCCNC(=O)CCCc2cn(CCCCCC(=O)NC(COCCC(=O)NCCOCCOCCOCCOC[C@H]3OC[C@H](Nc4nccc(C(F)(F)F)n4)C[C@H]3O)COCCC(=O)NCCOCCOCCOCCOC[C@H]3OC[C@H](Nc4nccc(C(F)(F)F)n4)C[C@H]3O)nn2)CSSC[C@@H](C(=O)N[C@H](C(N)=O)[C@@H](C)O)NC(=O)[C@H](Cc2c[nH]c3ccccc23)NC(=O)[C@H](C(C)C)NC(=O)[C@H](CC(C)C)NC(=O)[C@H](CCC(=O)O)NC(=O)CNC1=O` [compound 92], the EC50 (in the assay with HepG2 cells (setting [6]); in assay [1] (setting [7])) was greater than 1 µM in each case. For the same compound, the Kd at ASGPR (setting [8]) was greater than 1 µM.

On to `CC(C)C[C@@H]1NC(=O)[C@H](Cc2cnc[nH]2)NC(=O)[C@H](Cc2c[nH]c3ccccc23)NC(=O)[C@H](C)NC(=O)[C@@H](NC(=O)[C@H](CC(=O)O)NC(=O)CCOCCOCCOCCOCCNC(=O)CCCc2cn(CCCCCC(=O)NC(COCCC(=O)NCCOCCOCCOCCOC[C@H]3CO[C@H](Nc4cncc(C(F)(F)F)n4)[C@@H](O)[C@H]3O)(COCCC(=O)NCCOCCOCCOCCOC[C@H]3OC[C@H](Nc4nccc(C(F)(F)F)n4)[C@@H](O)[C@H]3O)COCCC(=O)NCCOCCOCCOCCOC[C@H]3OC[C@H](Nc4nccc(C(F)(F)F)n4)[C@@H](O)[C@H]3O)nn2)CSSC[C@@H](C(=O)N[C@H](C(N)=O)[C@@H](C)O)NC(=O)[C@H](Cc2c[nH]c3ccccc23)NC(=O)[C@H](C(C)C)NC(=O)[C@H](CC(C)C)NC(=O)[C@H](CCC(=O)O)NC(=O)CNC1=O` [compound 94], for which the EC50 (in the assay on HepG2 cells (setting [6]); in assay [1] (setting [7])) was less than 0.1 µM in each case. Moreover, the Kd on ASGPR (setting [8]) is less than 0.1 µM.

Regarding `CC(C)C[C@@H]1NC(=O)[C@H](Cc2cnc[nH]2)NC(=O)[C@H](Cc2c[nH]c3ccccc23)NC(=O)[C@H](C)NC(=O)[C@@H]2CSSC[C@H](NC(=O)[C@H](Cc3c[nH]c4ccccc34)NC(=O)[C@H](C(C)C)NC(=O)[C@H](CC(C)C)NC(=O)[C@H](CCC(=O)O)NC(=O)CNC1=O)C(=O)N[C@@H]([C@@H](C)O)C(=O)N1CCC[C@@H]1C(=O)N1C[C@H](NC(=O)COCCOCC(=O)NC[C@H]3OC[C@H](Nc4cncc(C(F)(F)F)n4)[C@@H](O)[C@H]3O)C[C@H]1C(=O)N[C@@H](CC(=O)O)C(=O)N2` [compound 96], the EC50 in the assay with HepG2 cells (Homo sapiens, the 25th table, class symbols, read-out: Uptake EC50) is less than 0.1 µM. Also, the Kd on IgG (second table, read-out: IgG KD) is less than 0.1 µM; on ASGPR (setting [8]), less than 0.1 µM.

Values taken from patent publication US20260083851A1 (AVILAR THERAPEUTICS, INC., priority 2022, published 2026).
